Data on eight compounds can be found in ChEMBL document CHEMBL1144808 (J Med Chem, 2008).

The structures appear in SMILES notation. In brackets after ≈: the same amount, converted by molar mass. Bounds are passed on as bounds.

Data set [1] deals with HT-29. Briefly: Cytotoxicity against human HT29 cells under normoxic condition after 2 hrs by clonogenic assay. The following applies: HT-29, 2 h. It is filed as functional.
Data set [2] has as its system HT-29. Description: Cytotoxicity against human HT29 cells under hypoxic condition after 2 hrs by clonogenic assay. The following applies: HT-29, 2 h. It is filed as functional.
For data set [3], the system named is HT-29. Briefly: Ratio of IC50 for human HT29 cells under normoxic condition to hypoxic condition by clonogenic assay. It is filed as functional.
The nature of data set [4]: Aqueous solubility at 100 mg at pH 7.4. It is filed as physicochemical.
For data set [5], the system named is Mus musculus. Briefly: Toxicity against human MIAPaCa2 cells xenografted mouse assessed as survival time at 6 mg/kg, ip administered once daily for 5 days a week for 15 days. The arrangement: dose 6 mg/kg, route intraperitoneal. The class given is organism-based, MIA PaCa-2. The following applies: in vivo.
The nature of data set [6]: Toxicity against human MIAPaCa2-RFP cells xenografted mouse. It is filed as organism-based.
The test system of data set [7] is NCI-H460. Description: Cytotoxicity against human H460 cells under hypoxic condition after 2 hrs by Alamar blue staining assay. The class given is functional, cell-based. The following applies: NCI-H460, 2 h.
Data set [8] deals with NCI-H460. Briefly: Cytotoxicity against human H460 cells under normoxic condition after 2 hrs by Alamar blue staining assay. The class given is functional, cell-based. To be noted: NCI-H460, 2 h.
Data set [9] deals with NCI-H460. Description: Ratio of IC50 for human H460 cells under normoxic condition to hypoxic condition by Alamar blue staining assay. It is filed as functional. Background: Alamar Blue is a resazurin reagent that responds to reducing activity.
Data set [10] can be described thus: Metabolic stability in mouse liver microsomes at 5 uM after 30 mins. The class given is ADME, Microsome. To be noted: read-out: Stability. On the technique in general: Liver microsomes are a subcellular fraction often used to study metabolism.
The subject of data set [11] is NCI-H460. Description: Cytotoxicity against human H460 cells under normoxic condition after 2 hrs by clonogenic assay. It is filed as functional. The following applies: NCI-H460, 2 h.
The subject of data set [12] is NCI-H460. Description: Cytotoxicity against human H460 cells under hypoxic condition after 2 hrs by clonogenic assay. It is filed as functional. To be noted: NCI-H460, 2 h.
The subject of data set [13] is NCI-H460. Description: Ratio of IC50 for human H460 cells under normoxic condition to hypoxic condition by clonogenic assay. The class given is functional.
In data set [14] the test system is MIA PaCa-2. Description: Antitumor activity against human MIAPaCa2 cells xenografted mouse assessed as tumor growth inhibition at 30 mg/kg, ip administered once daily for 5 days a week for 15 days. It is filed as functional. The following applies: MIA PaCa-2, ip, route intraperitoneal. (A xenograft is tissue or cells of one species grown in another, often human tumour cells in immunodeficient mice.)

The test system of data set [15] is Mus musculus. Briefly: Toxicity against human MIAPaCa2 cells xenografted mouse assessed as survival time at 30 mg/kg, ip administered daily once for 5 days a week for 15 days. The arrangement: dose 30 mg/kg, route intraperitoneal. The class given is organism-based, MIA PaCa-2. To be noted: in vivo.
Data set [16] has as its system MIA PaCa-2. Briefly: Antitumor activity against human MIAPaCa2 cells xenografted mouse assessed as tumor growth inhibition at 200 mg/kg, ip administered weekly once for 3 weeks. It is filed as functional. To be noted: MIA PaCa-2, ip, 504 h, route intraperitoneal.
Data set [17] relates to Mus musculus. Briefly: Toxicity against human MIAPaCa2 cells xenografted mouse assessed as survival time at 200 mg/kg, ip administered weekly once for 3 weeks. It is filed as organism-based, MIA PaCa-2. To be noted: in vivo, 504 h. Also noted: dose 200 mg/kg, route intraperitoneal.

Take `O=[N+]([O-])c1ccc(COP(=O)(NCCBr)NCCBr)o1`: the IC90 (commonly the concentration at which the effect reaches the 90% level) was determined as 2 µM in data set [1], 60 nM in data set [2], 2 µM in data set [11] and 50 nM in data set [12]. For the same compound, the “Ratio IC50” value is given as 30 in [3], 170 in data set [9] and 40 in data set [13]. In data set [4], the concentration in solution (solubility) came to 4300 µg/mL (≈ 9.88 mM). Moreover, in data set [5], the Survival was 27 days. The compound further yielded an MTD in data set [6] of 20 mg/kg. Also, the IC50 (as a rule, the concentration that inhibits the measured activity by half) in data set [7] turned out to be 83 nM; in data set [8], 14 µM. Moreover, the remaining at 0.5 h, 5 µM in data set [10] came out at 79%.
Take `Cn1c(COP(=O)(NCCCl)NCCCl)cnc1[N+](=O)[O-]`: the IC50 in [7] was found to be 210 nM; in [8], 88 µM. Besides, in data set [9], the “Ratio IC50” value is recorded as 420. For the same compound, the remaining at 0.5 h, 5 µM in data set [10] was 90%.
The like results for `Cn1c([N+](=O)[O-])cnc1COP(=O)(NCCBr)NCCBr` were, in that order, 5700 nM, 46 µM, 8 and 92%.
In the same order, the values of `CN(CCCl)P(=O)(OCc1cnc([N+](=O)[O-])n1C)N(C)CCCl` are 110 nM, 14 µM, 130 and 15%.
In the same order, the values of `Cn1c(COP(=O)(N(CCCl)CCCl)N(CCCl)CCCl)cnc1[N+](=O)[O-]` are 120 nM, 27 µM, 230 and 0%.
As for `Cn1c(COP(=O)(NCCBr)NCCBr)cnc1[N+](=O)[O-]` [EVOFOSFAMIDE], the IC90 in [1] is 40 µM; in [2], 200 nM; in [11], 30 µM; in data set [12], 100 nM. Besides, the figures for the “Ratio IC50” value in data set [3], in [9] and in [13] were 200, 270 and 300, respectively. In addition, in [4], the concentration in solution (solubility) was 5900 µg/mL (≈ 13.1 mM). Moreover, the inhibition in vivo – broadly, the percentage by which the read-out fell short of the control – at 30 mg/kg in data set [14] was 41%. In [15], the Survival worked out at 28 days. This compound registered an MTD in [6] of 100 mg/kg. The IC50 in data set [7] was determined as 19 nM; in [8], 5.1 µM. In data set [10], the remaining at 0.5 h, 5 µM turned out to be 92%.
`Nc1ccn([C@@H]2O[C@H](CO)[C@@H](O)C2(F)F)c(=O)n1` [GEMCITABINE]: the inhibition in vivo at 200 mg/kg in [16] was found to be 82%. Further, the Survival in data set [17] was determined as 42 days.
Turning to `Nc1n[n+]([O-])c2ccccc2[n+]1[O-]` [TIRAPAZAMINE], the IC50 in data set [7] was 11000 nM; in data set [8], over 100 µM. In addition, in data set [9], the “Ratio IC50” value is over 9.
